Data on two sequences can be found in patent publication US9573975B2, “Melanoma antigen peptide and uses thereof” (INSERM (INSTITUT NATIONAL DE LA SANTE ET DE LA RECHERCHE …, priority 2012, dated 2017).

Assay [1] concerns CD4 T cells in PBMC from healthy donors. Description: PBMC from healthy donors stimulated with MELOE-1, restimulated with overlapping peptides, CD4/TNF-α staining. Type of assay: cell-based, human. Conditions: for healthy donors in whom CD4 responses against the region were detected: seven healthy donors, TNFα production. As for the experimental part: FIG. 1: (A) Percentages of TNF-α producing CD4 T cells among positive microcultures. Fourteen days after PBMC stimulation with MELOE-1 whole polypeptide (2-46), microcultures were re-stimulated with each indicated peptide during 5 hours. TNF-α production was then assessed by a double labeling TNF-α-CD4. Results were analyzed with a non-parametric test (Kruskal-Wallis) followed by a Dunns post-test. (B) Frequency of microcultures containing CD4 T cells specific for MELOE-1 peptides (assessed by TNF-α intracellular staining after re-stimulation with the 4 indicated peptides). 624 microcultures (from 7 healthy donors) were analyzed by a contingency table followed by a Fisher exact test.
PBMC from healthy donors were stimulated with 10 μM of MELOE-1. After 14 days, the presence of CD4 T cells specific for the different regions of MELOE-1 was assessed by restimulating cells with MELOE-12-21, MELOE-111-30, MELOE-118-37 and MELOE-126-46 peptides, followed by CD4/TNF-α double staining and flow cytometry analysis. Between brackets is indicated the mean % of TNF-α producing CD4 T cells, in positive microcultures. NA: not available.
(§1) PBMC from healthy donors or melanoma patients (2·10^5 cells/well) were cultured for 14 days with 10 μM of MELOE-1 whole antigen (46 amino acids) in RPMI medium supplemented with 8% HS, 50 IU/ml of rIL-2 (Chiron, France) and L-Glutamin, in 96-well multiplates. Micro cultures were then restimulated individually with each overlapping peptide (MELOE-12-21, MELOE-111-30, MELOE-118-37, MELOE-126-46 or MELOE-122-46 for melanoma patients) in the presence of 10 μg/mL brefeldin A for 5 hours and the percentage of CD4^+ specific T cells was assessed by TNF-α, IFN-γ or IL-4 intracellular staining A negative control without peptide was included in all experiments.
(§2) Lymphocytes were stimulated for 5 hours in the presence of brefeldin A (10 μg/mL) either with peptide alone (10 μM) in an autopresentation assay or with B-EBV or HLA-class II expressing melanoma cells pulsed 2 hours with the cognate peptide, at a ratio 1:2. In some experiments, blocking mAb against HLA-DP (clone B7.21 from Dr Charron, UMR940, Paris), HLA-DQ (clone SPVL3, Beckman Coulter) or HLA-DR (clone L243, BD Biosciences) were added at a concentration of 12.5 μg/ml. Cells were then stained with APC-conjugated anti-CD4 mAb, fixed with 4% paraformaldehyde, labeled with PE-conjugated anti-cytokine mAb and analyzed by flow cytometry.
Our purpose was to look for the existence of class II helper epitopes all along MELOE-1 sequence (SEQ ID NO: 20), in order to document the immunogenicity of the different regions of this melanoma antigen. We stimulated 2·10^7 PBMC from seven healthy donors with MELOE-1 whole antigen and tested, after a 14-day culture period the presence of CD4 T cells specific for each region of the protein. Microcultures were screened for TNFα production by CD4+ T cells, after restimulation with four MELOE-1 derived overlapping peptides (Table I), in an autopresentation assay. […] On the contrary, the central region 18-37, containing an already described DR11-restricted epitope (24-37) located just at the end of this 20-mer peptide (Rogel et al., 2011), induced specific responses in microcultures deriving from only 2/7 donors (HD9 and HD17, both expressing the DR11 element). In these two donors, we detected 6 and 7% of positive microcultures, containing between 0.6 to 3.7% of TNFα producing CD4 T cells.

Assay [2] concerns CD4 T cells in PBMC from melanoma patients. In words: PBMC from melanoma patients stimulated with MELOE-1, restimulated with peptides, CD4/IFN-γ and CD4/IL4 staining. The class given is cell-based, human. Conditions: for Th1 responses, share of tested microcultures: of 576 tested microcultures, melanoma patients; for melanoma patients with CD4 specific responses (mainly Th1, IFN-g production) / melanoma patients with Th2 responses: responding/tested patients; for melanoma patients with Th2 responses: IL4. As to the method: FIG. 2: (A) Percentages of cytokine producing CD4 T cells among positive microcultures. Fourteen days after PBMC stimulation with MELOE-1 whole polypeptide (2-46), microcultures were re-stimulated with each indicated peptide during 5 hours. IFN-γ (left panel) and IL4 (right panel) production was then assessed by a triple labeling IFN-γ-IL4-CD4. Results were analyzed with a non-parametric test (Kruskal-Wallis) followed by a Dunns post-test. (B) Frequency of microcultures containing CD4 T cells specific for MELOE-1 peptides (assessed by IFN-γ or IL4 intracellular staining after re-stimulation with the 3 indicated peptides). 576 microcultures (from 10 melanoma patients) were analyzed by a contingency table followed by a Fisher exact test.
PBMC from melanoma patients were stimulated with 10 μM of MELOE-1. After 14 days, the presence of CD4 T cells specific for the different regions of MELOE-1 was assessed by restimulating cells with MELOE-12-21, MELOE-111-30 and MELOE-122-46 peptides, followed by CD4/IFN-γ double staining for the detection of Th1 responses, and by CD4/IL4 double staining for Th2 responses. Between brackets is indicated the mean % of cytokine producing CD4 T cells, in positive microcultures.
as §1, §2
In order to confirm the immunogenicity of each MELOE-1 regions in melanoma patients, we stimulated melanoma patients PBMC with the MELOE-1 whole protein, and tested the reactivity of stimulated lymphocytes towards the three most immunogenic regions: 2-21, 11-30, and 22-46. For this study, instead of challenging microcultures with the 18-37 peptide, that appeared poorly immunogenic, we extended the C-terminus region from 26-46 to 22-46, in order to also detect responses to our previously described HLA-DR11-restricted epitope (24-37). […] We tested the induction of CD4 specific responses from MELOE-1 stimulated PBMC of 10 melanoma patients. We documented CD4 responses specific for the central region of MELOE-1 (11-30) for 7/9 patients, whereas responses specific for MELOE-12-21 and MELOE-122-46 were respectively detected in 4/9 and 5/9 patients (Table III). These responses were mainly Th1 responses (IFN-g production) while less frequent Th2 responses specific for the three regions of MELOE-1 were detected in 3/9 patients for MELOE-12-21, 2/9 patients for MELOE-111-30 and 5/9 patients for MELOE-122-46 (Table III). […] Concerning Th2 responses, much less frequent, the C-term region appeared to induce more frequently the growth of IL-4 producing CD4 T cells than the two other regions (FIG. 2A). […]

With TSREQFLPSEGAACPPWHPS [MELOE-111-30], the results for the “mean % of TNF-α producing CD4 T cells, in positive microcultures” value in assay [1] (donor HD24) and in assay [1] (donor HD27) were “(2% ± 1.4)” and “(5% ± 3.4)”, respectively. In assay [1] (healthy donors, Fisher exact test, p<0.0001), the “frequency of positive microcultures versus the three other regions of MELOE-1” value was “significantly higher”. Also, in assay [1], the “healthy donors in whom CD4 responses against the region were detected” value is recorded as “each tested donor”. In addition, the “mean % of cytokine producing CD4 T cells, in positive microcultures (IFN-γ, Th1)” value (“mean % … (IFN-γ, Th1)” for short) in assay [2] (Pt ≠ 1) was “(1.4% ± 0.7)”; in assay [2] (Pt ≠ 2) it was “(1.6% ± 1.2)”; in assay [2] (Pt ≠ 3), “(16.2% ± 33.2)”; in assay [2] (Pt ≠ 4), “(0.9% ± 0.5)”; in assay [2] (Pt ≠ 5) it was “(1.5% ± 1.1)”; in assay [2] (Pt ≠ 6), “(1.5% ± 1.9)”. Further, the “mean % … (IFN-γ, Th1)” value in assay [2] (Pt ≠ 8) is given as “(2.9% ± 0.04 )”. Moreover, the “mean % of cytokine producing CD4 T cells, in positive microcultures (IL4, Th2)” value is listed as “(1%)” in assay [2] (Pt ≠ 1) and “(0.6% ± 0.09)” in assay [2] (Pt ≠ 9). The “Th1 responses, share of tested microcultures” value in assay [2] is 10.8%. Moreover, the “melanoma patients with CD4 specific responses (mainly Th1, IFN-g production)” value in assay [2] is listed as 7/9. The “melanoma patients with Th2 responses” value in assay [2] is on record as 2/9.

In assay [1] (healthy donor HD28), “SCVGYPDEATSREQFLPSEG (SCVGYPDEATSREQFLPSEC) [MELOE-12-21]” displayed a positive microcultures of 62%. The “healthy donors in whom CD4 responses against the region were detected” value in assay [1] is on record as 6/7. Further, the “mean % … (IFN-γ, Th1)” value in assay [2] (Pt ≠ 1) is “(0.7%)”; in assay [2] (Pt ≠ 2), “(0.8% ± 0.2)”; in assay [2] (Pt ≠ 3), “(1.7% ± 2.9)”; in assay [2] (Pt ≠ 5), “(0.6%)”. The “mean % of cytokine producing CD4 T cells, in positive microcultures (IL4, Th2)” value in assay [2] (Pt ≠ 4) was “(0.7%)”; in assay [2] (Pt ≠ 5), “(0.7% ± 0.1)”; in assay [2] (Pt ≠ 9) it was “(0.6%)”. Moreover, the “Th1 responses, share of tested microcultures” value in assay [2] came to 3.3%. Moreover, the “melanoma patients with CD4 specific responses (mainly Th1, IFN-g production)” value in assay [2] was 4/9. Besides, the “melanoma patients with Th2 responses” value in assay [2] is given as 3/9.
